{
  "source": "patent US20240109917A1",
  "about": "(ACTELION PHARMACEUTICALS LTD, priority 2020, published 2024)",
  "biological_target": "His6-TEV-PDGFRβ (557-1016) (Homo sapiens (Human), UniProt P09619)",
  "sequence (P09619 557-1016)": "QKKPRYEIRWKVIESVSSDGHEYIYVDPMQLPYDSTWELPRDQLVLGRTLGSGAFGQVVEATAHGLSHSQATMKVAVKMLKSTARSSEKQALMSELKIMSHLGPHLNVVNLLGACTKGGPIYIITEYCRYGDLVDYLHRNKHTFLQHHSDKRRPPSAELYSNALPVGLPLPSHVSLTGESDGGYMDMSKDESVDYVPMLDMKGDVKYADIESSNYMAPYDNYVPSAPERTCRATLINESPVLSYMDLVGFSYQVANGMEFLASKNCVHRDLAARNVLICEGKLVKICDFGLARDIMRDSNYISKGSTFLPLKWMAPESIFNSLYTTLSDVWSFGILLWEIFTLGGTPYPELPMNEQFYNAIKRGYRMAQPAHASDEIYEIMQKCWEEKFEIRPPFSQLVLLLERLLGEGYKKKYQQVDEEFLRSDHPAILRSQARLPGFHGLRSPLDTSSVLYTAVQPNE",
  "test": "PDGFRβ HTRF Assay",
  "assay_type": "biochemical",
  "conditions": "read-out: PDGFR HTRF IC50",
  "summary_of_the_method": "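Human PDGFRβ (557-1016) pre-incubated with compound for 30 min at RT in pH 7.5 HEPES/MgCl2/EGTA/Brij-35/DTT buffer. Reaction started with ATP and TK-biotin peptide, run 3 h at RT, then quenched with EDTA-containing Eu-cryptate antibody/streptavidin-XL665. HTRF 665/620 nm ratio read after 60 min; percent inhibition relative to DMSO and 10 μM imatinib controls.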",
  "data": [
    {"molecule": "Cc1ncc(C(=O)NCCN2CC3CCC2CC3)cc1NC(=O)c1cnn2cc(-c3cnn(CS(C)(=O)=O)c3)sc12", "note": "[Example 143, N-(5-((2-(2-azabicyclo[2.2.2]octan-2-yl)ethyl)carbamoyl)-2-methylpyridin-3-yl)-2-(1-((methylsulfonyl)methyl)-1H-pyrazol-4-yl)pyrazolo[5,1-b]thiazole-7-carboxamide]", "values": [
      {"measurement": "IC50", "result": 0.6, "unit": "nM"}
    ]},
    {"molecule": "Cc1ncc(NC(=O)CCN2CCCC2(C)C)cc1NC(=O)c1cnn2cc(-c3ccnn3C)sc12", "note": "[Example 11, N-(5-(3-(2,2-dimethylpyrrolidin-1-yl)propanamido)-2-methyl-pyridin-3-yl)-2-(1-methyl-1H-pyrazol-5-yl)pyrazolo[5,1-b]thiazole-7-carboxamide]", "values": [
      {"measurement": "IC50", "result": 0.5, "unit": "nM"}
    ]},
    {"molecule": "COCCn1nc(C)c(-c2cn3ncc(C(=O)Nc4cc(NC(=O)CCN5CCC6(CC6)C5)cnc4C)c3s2)c1C", "note": "[Example 103, N-(5-(3-(5-azaspiro[2.4]heptan-5-yl)propanamido)-2-methylpyridin-3-yl)-2-(1-(2-methoxyethyl)-3,5-dimethyl-1H-pyrazol-4-yl)pyrazolo[5,1-b]thiazole-7-carboxamide]", "values": [
      {"measurement": "IC50", "result": 0.8, "unit": "nM"}
    ]},
    {"molecule": "Cc1ncc(C(=O)NCCN2CCC(F)(F)C2)cc1NC(=O)c1cnn2cc(-c3cnn(C)c3)sc12", "note": "[Example 120, N-(5-((2-(3,3-difluoropyrrolidin-1-yl)ethyl)carbamoyl)-2-methylpyridin-3-yl)-2-(1-methyl-1H-pyrazol-4-yl)pyrazolo[5,1-b]thiazole-7-carboxamide]", "values": [
      {"measurement": "IC50", "result": 0.4, "unit": "nM"}
    ]},
    {"molecule": "Cc1ncc(C(=O)NCCN2CC3CCC2CC3)cc1NC(=O)c1cnn2cc(-c3cccnc3)sc12", "note": "[Example 149, N-(5-((2-(2-azabicyclo[2.2.2]octan-2-yl)ethyl)carbamoyl)-2-methylpyridin-3-yl)-2-(pyridin-3-yl)pyrazolo[5,1-b]thiazole-7-carboxamide]", "values": [
      {"measurement": "IC50", "result": 0.3, "unit": "nM"}
    ]},
    {"molecule": "Cc1ncc(C(=O)NCCN2CCC(F)(F)CC2)cc1NC(=O)c1cnn2cc(-c3cccnc3)sc12", "note": "[Example 157, N-(5-((2-(4,4-difluoropiperidin-1-yl)ethyl)carbamoyl)-2-methylpyridin-3-yl)-2-(pyridin-3-yl)pyrazolo[5,1-b]thiazole-7-carboxamide]", "values": [
      {"measurement": "IC50", "result": 0.6, "unit": "nM"}
    ]},
    {"molecule": "Cc1ncc(C(=O)NCCN2CCCC23COC3)cc1NC(=O)c1cnn2cc(-c3cnn(C)c3)sc12", "note": "[Example 114, N-(5-((2-(2-oxa-5-azaspiro[3.4]octan-5-yl)ethyl)carbamoyl)-2-methylpyridin-3-yl)-2-(1-methyl-1H-pyrazol-4-yl)pyrazolo[5,1-b]thiazole-7-carboxamide]", "values": [
      {"measurement": "IC50", "result": 0.4, "unit": "nM"}
    ]},
    {"molecule": "Cc1ncc(C(=O)NCCN2CCOCC23CC3)cc1NC(=O)c1cnn2cc(-c3cnn(C)c3)sc12", "note": "[Example 110, N-(5-((2-(7-oxa-4-azaspiro[2.5]octan-4-yl)ethyl)carbamoyl)-2-methylpyridin-3-yl)-2-(1-methyl-1H-pyrazol-4-yl)pyrazolo[5,1-b]thiazole-7-carboxamide]", "values": [
      {"measurement": "IC50", "result": 0.6, "unit": "nM"}
    ]},
    {"molecule": "COCCN(CCNC(=O)c1cnc(C)c(NC(=O)c2cnn3cc(-c4cnn(C)c4)sc23)c1)CCOC", "note": "[Example 128, N-(5-((2-(bis(2-methoxyethyl)amino)ethyl)carbamoyl)-2-methylpyridin-3-yl)-2-(1-methyl-1H-pyrazol-4-yl)pyrazolo[5,1-b]thiazole-7-carboxamide]", "values": [
      {"measurement": "IC50", "result": 0.9, "unit": "nM"}
    ]},
    {"molecule": "Cc1ncc(NC(=O)CCN2CCC3(CC2)CC3)cc1NC(=O)c1cnn2cc(-c3cnn(C)c3)sc12", "note": "[Example 97, N-(5-(3-(6-azaspiro[2.5]octan-6-yl)propanamido)-2-methylpyridin-3-yl)-2-(1-methyl-1H-pyrazol-4-yl)pyrazolo[5,1-b]thiazole-7-carboxamide]", "values": [
      {"measurement": "IC50", "result": 0.4, "unit": "nM"}
    ]},
    {"molecule": "Cc1ncc(C(=O)NCCN2CCC3(CC3)C2)cc1NC(=O)c1cnn2cc(-c3cn(C)nc3C)sc12", "note": "[Example 177, N-(5-((2-(5-azaspiro[2.4]heptan-5-yl)ethyl)carbamoyl)-2-methylpyridin-3-yl)-2-(1,3-dimethyl-1H-pyrazol-4-yl)pyrazolo[5,1-b]thiazole-7-carboxamide]", "values": [
      {"measurement": "IC50", "result": 0.3, "unit": "nM"}
    ]},
    {"molecule": "COCCN(CCNC(=O)c1cnc(C)c(NC(=O)c2cnn3cc(-c4cnn(C)c4)sc23)c1)C1CCC1", "note": "[Example 115, N-(5-((2-(cyclobutyl(2-methoxyethyl)amino)ethyl)carbamoyl)-2-methylpyridin-3-yl)-2-(1-methyl-1H-pyrazol-4-yl)pyrazolo[5,1-b]thiazole-7-carboxamide]", "values": [
      {"measurement": "IC50", "result": 0.4, "unit": "nM"}
    ]},
    {"molecule": "Cc1ncc(C(=O)NCCN2CC3(CCC3)C2)cc1NC(=O)c1cnn2cc(-c3cnn(C)c3)sc12", "note": "[Example 124, N-(5-((2-(2-azaspiro[3.3]heptan-2-yl)ethyl)carbamoyl)-2-methylpyridin-3-yl)-2-(1-methyl-1H-pyrazol-4-yl)pyrazolo[5,1-b]thiazole-7-carboxamide]", "values": [
      {"measurement": "IC50", "result": 0.6, "unit": "nM"}
    ]},
    {"molecule": "Cc1ncc(C(=O)NCCN2Cc3ncsc3C2)cc1NC(=O)c1cnn2cc(-c3cnn(C)c3)sc12", "note": "[Example 111, N-(5-((2-(4H-pyrrolo[3,4-d]thiazol-5 (6H)-yl)ethyl)carbamoyl)-2-methylpyridin-3-yl)-2-(1-methyl-1H-pyrazol-4-yl)pyrazolo[5,1-b]thiazole-7-carboxamide]", "values": [
      {"measurement": "IC50", "result": 1.1, "unit": "nM"}
    ]},
    {"molecule": "COCCn1cc(-c2cn3ncc(C(=O)Nc4cc(C(=O)NCCN5CC(C)(C)C5)cnc4C)c3s2)cn1", "note": "[Example 166, N-(5-((2-(3,3-dimethylazetidin-1-yl)ethyl)carbamoyl)-2-methylpyridin-3-yl)-2-(1-(2-methoxyethyl)-1H-pyrazol-4-yl)pyrazolo[5,1-b]thiazole-7-carboxamide]", "values": [
      {"measurement": "IC50", "result": 0.7, "unit": "nM"}
    ]},
    {"molecule": "Cc1ncc(C(=O)NCCN2CCCC2(C)C)cc1NC(=O)c1cnn2cc(-c3cn(C)cn3)sc12", "note": "[Example 163, N-(5-((2-(2,2-dimethylpyrrolidin-1-yl)ethyl)carbamoyl)-2-methylpyridin-3-yl)-2-(1-methyl-1H-imidazol-4-yl)pyrazolo[5,1-b]thiazole-7-carboxamide]", "values": [
      {"measurement": "IC50", "result": 0.3, "unit": "nM"}
    ]},
    {"molecule": "Cc1ncc(C(=O)NCCN2CCCC2(C)C)cc1NC(=O)c1cnn2cc(-c3cn(C)nc3C)sc12", "note": "[Example 174, 2-(1,3-dimethyl-1H-pyrazol-4-yl)-N-(5-((2-(2,2-dimethylpyrrolidin-1-yl)ethyl)carbamoyl)-2-methylpyridin-3-yl)pyrazolo[5,1-b]thiazole-7-carboxamide]", "values": [
      {"measurement": "IC50", "result": 0.3, "unit": "nM"}
    ]},
    {"molecule": "Cc1ncc(C(=O)NCCN2C3CCC2COC3)cc1NC(=O)c1cnn2cc(-c3cnn(C)c3)sc12", "note": "[Example 122, N-(5-((2-(3-oxa-8-azabicyclo[3.2.1]octan-8-yl)ethyl)carbamoyl)-2-methylpyridin-3-yl)-2-(1-methyl-1H-pyrazol-4-yl)pyrazolo[5,1-b]thiazole-7-carboxamide]", "values": [
      {"measurement": "IC50", "result": 0.3, "unit": "nM"}
    ]},
    {"molecule": "Cc1ncc(C(=O)NCCN2C3CCC2CC3)cc1NC(=O)c1cnn2cc(-c3cnn(C)c3C)sc12", "note": "[Example 172, N-(5-((2-(7-azabicyclo[2.2.1]heptan-7-yl)ethyl)carbamoyl)-2-methylpyridin-3-yl)-2-(1,5-dimethyl-1H-pyrazol-4-yl)pyrazolo[5,1-b]thiazole-7-carboxamide]", "values": [
      {"measurement": "IC50", "result": 0.3, "unit": "nM"}
    ]},
    {"molecule": "Cc1ncc(C(=O)NCCN2CCC(C)(C)C2)cc1NC(=O)c1cnn2cc(-c3ccncc3)sc12", "note": "[Example 156, N-(5-((2-(3,3-dimethylpyrrolidin-1-yl)ethyl)carbamoyl)-2-methylpyridin-3-yl)-2-(pyridin-4-yl)pyrazolo[5,1-b]thiazole-7-carboxamide]", "values": [
      {"measurement": "IC50", "result": 0.4, "unit": "nM"}
    ]},
    {"molecule": "Cc1ncc(C(=O)NCCN2CCCC2(C)C)cc1NC(=O)c1cnn2cc(-c3cnn(C)c3C)sc12", "note": "[Example 173, 2-(1,5-dimethyl-1H-pyrazol-4-yl)-N-(5-((2-(2,2-dimethylpyrrolidin-1-yl)ethyl)carbamoyl)-2-methylpyridin-3-yl)pyrazolo[5,1-b]thiazole-7-carboxamide]", "values": [
      {"measurement": "IC50", "result": 0.3, "unit": "nM"}
    ]},
    {"molecule": "COCCn1cc(-c2cn3ncc(C(=O)Nc4cc(C(=O)NCCN5CCC(F)(F)CC5)cnc4C)c3s2)cn1", "note": "[Example 165, N-(5-((2-(4,4-difluoropiperidin-1-yl)ethyl)carbamoyl)-2-methylpyridin-3-yl)-2-(1-(2-methoxyethyl)-1H-pyrazol-4-yl)pyrazolo[5,1-b]thiazole-7-carboxamide]", "values": [
      {"measurement": "IC50", "result": 0.6, "unit": "nM"}
    ]},
    {"molecule": "Cc1ncc(C(=O)NCCN2CCCC2(C)C)cc1NC(=O)c1cnn2cc(-c3cncnc3)sc12", "note": "[Example 139, N-(5-((2-(2,2-dimethylpyrrolidin-1-yl)ethyl)carbamoyl)-2-methylpyridin-3-yl)-2-(pyrimidin-5-yl)pyrazolo[5,1-b]thiazole-7-carboxamide]", "values": [
      {"measurement": "IC50", "result": 5.3, "unit": "nM"}
    ]},
    {"molecule": "Cc1ncc(C(=O)NCCN2CC3CCC2CC3)cc1NC(=O)c1cnn2cc(-c3cnn(CC#N)c3)sc12", "note": "[Example 151, N-(5-((2-(2-azabicyclo[2.2.2]octan-2-yl)ethyl)carbamoyl)-2-methylpyridin-3-yl)-2-(1-(cyanomethyl)-1H-pyrazol-4-yl)pyrazolo[5,1-b]thiazole-7-carboxamide]", "values": [
      {"measurement": "IC50", "result": 0.3, "unit": "nM"}
    ]},
    {"molecule": "COCCN(CCNC(=O)c1cnc(C)c(NC(=O)c2cnn3cc(-c4cnn(C)c4)sc23)c1)C(C)C", "note": "[Example 127, N-(5-((2-(isopropyl(2-methoxyethyl)amino)ethyl)carbamoyl)-2-methylpyridin-3-yl)-2-(1-methyl-1H-pyrazol-4-yl)pyrazolo[5,1-b]thiazole-7-carboxamide]", "values": [
      {"measurement": "IC50", "result": 0.6, "unit": "nM"}
    ]},
    {"molecule": "Cc1ncc(C(=O)NCCN2CC(C)(C)C2)cc1NC(=O)c1cnn2cc(-c3ccncc3)sc12", "note": "[Example 155, N-(5-((2-(3,3-dimethylazetidin-1-yl)ethyl)carbamoyl)-2-methylpyridin-3-yl)-2-(pyridin-4-yl)pyrazolo[5,1-b]thiazole-7-carboxamide]", "values": [
      {"measurement": "IC50", "result": 1, "unit": "nM"}
    ]},
    {"molecule": "Cc1ncc(NC(=O)NCC2CCN(C)CC2)cc1NC(=O)c1cnn2cc(-c3cnn(C)c3)sc12", "note": "[Example 107, 2-(1-methyl-1H-pyrazol-4-yl)-N-(2-methyl-5-(3-((1-methylpiperidin-4-yl)methyl)ureido)pyridin-3-yl)pyrazolo[5,1-b]thiazole-7-carboxamide]", "values": [
      {"measurement": "IC50", "result": 13.2, "unit": "nM"}
    ]}
  ]
}
